Entries after “also recorded” stand apart in the source; their conditions may differ.

Experiment [1] deals with αR438fs. Description: Membrane abundance of αR438fs. The format is cell-based, human. The following applies: 200 nM, relative to WT control (=1). How it is done:
Cell surface biotinylation was performed as previously described ([26]). In brief, A549 cells or transiently transfected HEK-293 cells were grown in 10 cm dishes in 37°C, 5% CO2 incubator in DMEM medium supplemented with 5% FBS. […] Medium was aspirated, and then cells were washed twice with 10 ml ice-cold phosphate-buffered saline (PBS), covered with 2.5 mg EZ-Link Sulfo-NHS-SS-Biotin (Thermo Scientific, Rockford, USA), dissolved in 10 ml ice-cold PBS, and incubated at 4°C with gentle agitation for 30 min. Fifty milliliters of quenching solution were added to cells; then cells were scraped in solution and transferred to fresh 50 ml tube. Cell suspension was centrifuged at 500 × g for 3 min. Supernatant was discarded, and 5 ml of Tris-buffered saline (TBS) was added to the cell pellet. The cell pellet was resuspended and centrifuged at 500 × g for 3 min. Supernatant was discarded and cell pellet was resuspended in lysis buffer containing protease inhibitor cocktail (10 µM pepstatin A, 10 µM phenylmethylsulfonyl fluoride, and 10 µM leupeptin) and transferred to fresh 1.5 ml centrifuge tube. Cell pellet was then homogenized on ice by ultrasonication using 1 s bursts and incubated on ice for at least 30 min. Intact cells and nuclei were pelleted by centrifugation at 10,000 × g for 2 min under cooling conditions. […] Exposed films were scanned and quantified using ImageJ (NIH, MD, USA). […]

Experiment [2] has as its system αY447fs (co-expressed with βγ-ENaC). Description: Whole-cell patch clamp, αY447fs + WT βγ. Type of experiment: cell-based, human. The following applies: read-out: EC50, solnatide, HEK-293, whole-cell, -100 mV, n = 7. How it is done: Point mutations of α-, β-, γ- and δ-hENaC and PHA1B frameshift mutations of α-hENaC were prepared with the QuikChange Lightning Site-Directed Mutagenesis Kit (Agilent Technologies, CA, USA). Mutagenic primers were designed individually with the Primer Design Program provided on the producer’s website or for the frameshift mutations the same base changes as reported in patients (see Table 2) were performed. Primers were ordered from Sigma-Aldrich, Vienna, Austria.
HEK-293 cells were transfected 1 day after cell seeding using X-tremeGENE HP DNA transfection reagent (Roche Diagnostics, Mannheim, Germany) according to the manufacturer’s protocol. A set of WT or mutant αβγ- or δβγ-hENaC, or α-, β-, γ-, or δ-hENaC alone was used, and the ratio of DNA to transfection reagent was 1:3. The expression was highest 48–72 h after transfection.
Electrophysiological experiments were performed as described in detail by Shabbir et al. ([16]). […] Currents were recorded with the patch clamp method in the whole-cell mode. The chamber contained 1 ml of the bath solution of the following composition (in mM): 145 NaCl, 2.7 KCl, 1.8 CaCl2, 2 MgCl2, 5.5 glucose, and 10 HEPES, adjusted to pH 7.4 with 1 M NaOH solution. Micropipettes were pulled from thin-walled borosilicate glass capillaries (Harvard Apparatus, Holliston, MA, USA) with a DMZ Zeitz Puller to obtain electrode resistances ranging from 2 to 5 MΩ. […]

In experiment [3] the target is T1, αR448fsβγ-ENaC (Homo sapiens, UniProt P37088+P51168+P51170).
T1 construct: expressed in transfected cells; host or cells: HEK-293
T1 sequence (P37088 with tags, fused parts or gaps): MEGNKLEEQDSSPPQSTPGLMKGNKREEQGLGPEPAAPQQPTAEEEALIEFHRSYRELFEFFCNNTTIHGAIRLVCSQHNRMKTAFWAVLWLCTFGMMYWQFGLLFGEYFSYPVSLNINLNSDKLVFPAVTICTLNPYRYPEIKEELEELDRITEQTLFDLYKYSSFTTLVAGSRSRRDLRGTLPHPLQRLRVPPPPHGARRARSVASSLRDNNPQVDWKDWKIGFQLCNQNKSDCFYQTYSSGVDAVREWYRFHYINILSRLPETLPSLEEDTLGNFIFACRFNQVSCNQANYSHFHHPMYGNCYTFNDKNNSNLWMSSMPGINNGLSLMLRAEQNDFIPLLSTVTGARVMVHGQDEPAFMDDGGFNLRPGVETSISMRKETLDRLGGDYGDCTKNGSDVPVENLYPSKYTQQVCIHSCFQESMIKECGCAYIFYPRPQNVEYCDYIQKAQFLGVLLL
T1 sequence (P51168 whole entry partner): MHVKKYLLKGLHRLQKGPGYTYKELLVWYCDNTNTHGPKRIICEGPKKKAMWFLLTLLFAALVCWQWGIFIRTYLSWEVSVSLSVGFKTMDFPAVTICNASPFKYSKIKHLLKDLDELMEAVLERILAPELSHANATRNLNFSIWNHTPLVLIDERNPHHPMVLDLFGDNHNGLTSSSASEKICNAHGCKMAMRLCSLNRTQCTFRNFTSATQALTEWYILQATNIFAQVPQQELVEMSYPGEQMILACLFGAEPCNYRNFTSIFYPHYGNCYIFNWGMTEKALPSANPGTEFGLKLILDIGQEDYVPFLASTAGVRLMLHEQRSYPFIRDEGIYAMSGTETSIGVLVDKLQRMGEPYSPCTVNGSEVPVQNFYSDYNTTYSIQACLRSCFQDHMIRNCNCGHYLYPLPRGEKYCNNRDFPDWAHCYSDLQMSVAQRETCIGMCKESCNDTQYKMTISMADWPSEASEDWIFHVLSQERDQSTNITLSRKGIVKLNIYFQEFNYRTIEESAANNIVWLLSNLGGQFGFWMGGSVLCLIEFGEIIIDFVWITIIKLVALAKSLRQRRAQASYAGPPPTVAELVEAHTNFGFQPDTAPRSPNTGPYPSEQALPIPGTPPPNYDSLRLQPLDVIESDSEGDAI
T1 sequence (P51170 whole entry partner): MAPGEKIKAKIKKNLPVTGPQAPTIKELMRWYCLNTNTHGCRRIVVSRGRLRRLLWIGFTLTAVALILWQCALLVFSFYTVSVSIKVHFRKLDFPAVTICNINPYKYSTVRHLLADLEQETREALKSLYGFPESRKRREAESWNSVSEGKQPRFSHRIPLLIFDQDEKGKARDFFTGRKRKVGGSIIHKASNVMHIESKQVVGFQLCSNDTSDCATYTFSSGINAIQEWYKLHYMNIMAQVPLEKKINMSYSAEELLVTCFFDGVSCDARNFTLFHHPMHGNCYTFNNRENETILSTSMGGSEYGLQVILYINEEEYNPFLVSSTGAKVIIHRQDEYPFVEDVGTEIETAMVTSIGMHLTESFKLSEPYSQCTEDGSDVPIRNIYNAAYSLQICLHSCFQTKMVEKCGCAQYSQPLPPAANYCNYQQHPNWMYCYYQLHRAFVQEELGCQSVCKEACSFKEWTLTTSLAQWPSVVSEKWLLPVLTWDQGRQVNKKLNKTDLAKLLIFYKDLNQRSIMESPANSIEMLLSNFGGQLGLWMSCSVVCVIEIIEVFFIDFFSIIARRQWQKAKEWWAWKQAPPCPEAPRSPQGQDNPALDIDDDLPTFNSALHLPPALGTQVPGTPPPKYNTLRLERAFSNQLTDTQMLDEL
Description: Whole-cell patch clamp, αR448fs + WT βγ. The format is cell-based. The following applies: αR448fsβγ preincubated with 100 units PNGase F; 200 nM solnatide or 20 nM TNF; n = 3. How it is done:
Currents were recorded with the patch clamp method in the whole-cell mode. […] Chemicals for pipette and bathing solutions were supplied by Sigma-Aldrich (Vienna, Austria). Electrophysiological measurements were carried out with an Axopatch 200B patch clamp amplifier (Axon Instruments, CA, USA).
A general note: The patch-clamp technique gives a direct electrical read-out from membranes.

Turning to `C[C@@H]1NC(=O)CNC(=O)[C@H](CCC(=O)O)NC(=O)[C@@H]2CCCN2C(=O)[C@H]([C@@H](C)O)NC(=O)[C@H](CCC(=O)O)NC(=O)[C@H](CCCNC(=N)N)NC(=O)[C@H](CCC(N)=O)NC(=O)CNC(=O)[C@@H](N)CSSC[C@@H](C(=O)O)NC(=O)[C@H](Cc2ccc(O)cc2)NC(=O)[C@H](Cc2c[nH]c3ccccc23)NC(=O)[C@@H]2CCCN2C(=O)[C@H](CCCCN)NC(=O)[C@H](C)NC(=O)[C@H](CCC(=O)O)NC1=O` [solnatide, L-cysteine, L-cysteinylglycyl-L-glutaminyl-L-arginyl-L-α-glutamyl-L-threonyl-L-prolyl-L-α-glutamylglycyl-L-alanyl-L-α-glutamyl-L-alanyl-L-lysyl-L-prolyl-L-tryptophyl-L-tyrosyl-, cyclic (1→17)-disulfide], the “Membrane abundance, solnatide 5 min” value in experiment [1] (5 min, own control 0.90 ± 0.07, p < 0.001 vs control) is reported as 1.39 ± 0.14. Also, the “Membrane abundance, solnatide 10 min” value in experiment [1] (10 min, own control 0.90 ± 0.07) is 0.87 ± 0.10. In experiment [2], the concentration giving a half-maximal response (EC50) is 57.2 ± 4.8 nM. In addition, the “Current activation after PNGase F” value in experiment [3] is “no current could be induced; also recorded: neither TNF nor solnatide potentiated amiloride-sensitive current in αR448fsβγ-ENaC following PNGase F treatment”.

As usually defined, the EC50 is the concentration at which the effect is half-maximal.
